Experiments:
ECs = assay: Protein synthesis: 35S-methionine/cysteine in trichloroacetic acid-precipitable material; assay type: cell-based; details: Homo sapiens; 10 μg/mL, 4 hrs
Protocol: (§1) Measurement of Weibel-Palade body exocytosis: ECs were plated into 24 well plates, rinsed 3 times with Hank's balanced salt solution, and then exposed to hypoxia or to normoxia for the indicated durations. For experiments in which vWF was measured, cells were maintained in serum-free medium. All other EC experiments were performed in the EC growth medium described above. […] EC P-selectin expression was determined by measuring the specific binding of a murine monoclonal anti-human P-selectin antibody (WAPS 12.2 clone, Endogen, Cambridge, Mass.; this is an IgGl which recognizes a calcium sensitive epitope and blocks P-selectin dependent neutrophil adhesion. Antibody was radiolabelled with ^125I by the lactoperoxidase method (19) using Enzymobeads (Bio-Rad, Hercules, Calif.), stored at 4° C. and used within one week of labelling. Binding assays were performed on HUVECs plated on 96 well plates, in which fresh M199 with 0.1% bovine serum albumin (Sigma, St. Louis, Mo.) was added immediately prior to each experiment. […] After binding for 1 hour at 37° C., monolayers were washed 4 times with HBSS/A, and bound antibody was eluted with 1% triton X-100 in PBS (200 μL/well) and counted. […] Following 4 hours of normoxic exposure, trichloroacetic acid-precipitable material was collected and counted.

Human umbilical vein ECs = assay: vWF release from hypoxic endothelial cells (ELISA); assay type: cell-based; details: cycloheximide 10 μg/ml added at start of hypoxic period, 4 hours of hypoxia
Protocol: Endothelial cell culture and exposure of cells to H or H/R. Human umbilical vein ECs were prepared from umbilical cords and grown in culture by the method of Jaffe (16) as modified by Thornton (17). Experiments utilized confluent ECs (passages 1-4) grown in Medium 199 supplemented with fetal bovine serum (15%; Gemini, Calabasas, Calif.), human serum (5%; Gemini), endothelial growth supplement (Sigma, St. Louis, Mo.), heparin (90 μg/ml; Sigma) and antibiotics, as described (17). When ECs achieved confluence, experiments were performed by placing cultures in an environmental chamber (Coy Laboratory Products, Ann Arbor, Mich.) which provided a controlled temperature (37° C.) and atmosphere with the indicated amount of oxygen, carbon dioxide (5%) and the balance made up of nitrogen. Use of this chamber for cell culture experiments has been described previously (15,18). During exposure of ECs to hypoxia (for a maximum of 16 hours), the oxygen tension in the culture medium was 14-18 torr and there was no change in the medium pH. Reoxygenation was performed by placing ECs in an ambient atmosphere containing carbon dioxide (5%) at 37° C.
Measurement of Weibel-Palade body exocytosis: ECs were plated into 24 well plates, rinsed 3 times with Hank's balanced salt solution, and then exposed to hypoxia or to normoxia for the indicated durations. For experiments in which vWF was measured, cells were maintained in serum-free medium. All other EC experiments were performed in the EC growth medium described above. For measurement of vWF, 200 μL aliquots of culture supernatant was removed at the indicated times, and a commercially available ELISA (American Diagnostica, Greenwich, Conn.), based on a polyclonal goat anti-human vWF antibody, was performed on duplicate specimens, with a standard curve generated using purified human vWF antigen supplied by the same vendor. EC P-selectin expression was determined by measuring the specific binding of a murine monoclonal anti-human P-selectin antibody (WAPS 12.2 clone, Endogen, Cambridge, Mass.; this is an IgGl which recognizes a calcium sensitive epitope and blocks P-selectin dependent neutrophil adhesion. Antibody was radiolabelled with ^125I by the lactoperoxidase method (19) using Enzymobeads (Bio-Rad, Hercules, Calif.), stored at 4° C. and used within one week of labelling. Binding assays were performed on HUVECs plated on 96 well plates, in which fresh M199 with 0.1% bovine serum albumin (Sigma, St. Louis, Mo.) was added immediately prior to each experiment. Cells were placed in a humidified environment at 37° C., and exposed to normoxia or H (in the presence or absence of 50 μM probucol, as indicated, Sigma) for the indicated durations. Cell monolayers were fixed for 15 min. with 1% paraformaldehyde^10 (cells exposed to H were fixed while still within the hypoxic environment), visually inspected to ensure that the monolayers remained intact, and washed twice with HBSS containing 0.5% bovine serum albumin (HBSS/A). Monolayers were then exposed to 10^5 cpm of ^125I-labelled anti-P-selectin antibody (WAPS 12.2) in the presence of 200 μg/mL of either unlabelled blocking antibody (WAPS 12.2) or nonblocking anti-P-selectin IgG of the same isotype (anti-GMP-140, AC1.2 clone, Becton-Dickinson, San Jose, Calif.) (20,21). After binding for 1 hour at 37° C., monolayers were washed 4 times with HBSS/A, and bound antibody was eluted with 1% triton X-100 in PBS (200 μL/well) and counted. […]

P-selectin [1] = assay: EC P-selectin expression by specific binding of 125I anti-P-selectin antibody; assay type: cell-based, human; details: cycloheximide 10 μg/mL given at onset of H, 4 hour time point
Protocol: as §1

[2] = tested on: intracellular calcium concentration [Cai]; assay: Intracellular calcium by fura-2 fluorescence in hypoxic ECs; assay type: cell-based, human
Protocol: (§2) Hypoxia or free radicals induce P-selectin (PS) translocation to the endothelial cell (EC) surface, where it participates in neutrophil (PMN) adhesion during reperfusion. To explore a mechanism whereby nitrovasodilators may attenuate postischemic leukosequestration, we tested whether stimulating the NO/cGMP pathway could attenuate surface PS expression in hypoxic human umbillical vein ECs. […] Under similar conditions, addition of the NO donor 3-morpholino sydnonimine (SIN-1, 0.1 mM) or the cGMP analog 8-Bromo-cGMP (cGMP, 10 nM) caused a reduction in vWF release; Control vWF, 11±0.4 mU/mL; SIN-1, 9.1±0.3 mU/mL; cGMP, 9.7±0.2 mU/mL; p<0.005 for both SIN-1 or cGMP vs Control.

[3] = tested on: hypoxic human umbillical vein ECs; assay: vWF release from hypoxic HUVECs, NO/cGMP pathway; assay type: cell-based; details: hypoxia pO2<20 Torr 4 hours; SIN-1 0.1 mM, 8-Bromo-cGMP 10 nM
Protocol: as §2

hypoxic HUVECs = assay: Immunofluorescent adherence assay, HL60 binding to hypoxic HUVECs; assay type: cell-based, human
Protocol: as §2

P-selectin [4] = assay: Surface P-selectin expression on hypoxic HUVECs (radiolabeled anti-PS antibody binding); assay type: cell-based, human
Protocol: as §2

| Structure (SMILES) | inhibition at 10 µg/mL (ECs) [%] | decrease of hypoxia-induced vWF release (Human umbilical vein ECs) [%] | hypoxia-induced endothelial P-selectin expression (P-selectin [1]) | hypoxia-increased intracellular calcium concentration [Cai] [2] | vWF release [3] [mU/mL] | decrease of HL60 binding to hypoxic HUVECs vs controls (hypoxic HUVECs) [%] | PS expression in calcium-free medium (P-selectin [4]; ECs in calcium-free medium) | decrease of surface PS expression vs controls (P-selectin [4]; hypoxia 4 hours, SIN-1 0.1 mM, 8-Bromo-cGMP 10 nM) [%] |
| --- | --- | --- | --- | --- | --- | --- | --- | --- |
| C[C@@H]1C[C@@H]([C@H](O)CC2CC(=O)NC(=O)C2)C(=O)[C@@H](C)C1 [cycloheximide] | > 85 | 12.5 | hypoxia still increased endothelial P-selectin expression, albeit at reduced levels | – | – | – | – | – |
| Nc1nc2c(nc(Br)n2[C@@H]2O[C@@H]3COP(=O)(O)O[C@H]3[C@H]2O)c(=O)[nH]1 [cGMP, 8-Bromo-cGMP] | – | – | – | could be blocked | 9.7±0.2 | 86 | Neither SIN-1 nor cGMP could further reduce PS expression | 48 |
